The values below come from patent publication EP3386957B1, “PROCESS FOR THE PURIFICATION OF 10-DEACETYL BACCATIN III” (RotaChrom Technológiai és Szolgálató Zártkörüen Müködö …, priority 2015, dated 2017).

Values after ≈ are worked out from the molar mass of the structure shown. Like-named read-outs stand apart in the source and are kept apart here.

Holding throughout (assay type): physicochemical
The nature of data set [1]: Selectivity of CPC solvent systems for contaminants of 10-DAB III (contaminants identified by HPLC relative retention time). Here is the method: The HPLC methods used for the analysis: • 1. Isocratic method • Column: Dr Maisch ReproSil-Pur C18-AQ (150x4.0 mm, 3 um) • Column thermostat: 35 °C • Flow rate: 0.75 ml/min • Eluent: 28% acetonitrile, 72% water, 0.1% acetic acid • Detection wavelength: 230 +/- 5 nm • Injected volume: 10 ul • 2. Gradient method • Colum: Phenomenex Kinetex C18 (100x3.0 mm, 2.6 um) • Column thermostat: 35 °C • Flow rate: 0.7 ml/min • Eluent A: water + 0.1% acetic acid Eluent B: acetonitrile Gradient program: 0 min 20% B, 5 min: 30% B, 11 min 40% B, 13 min 40% B, 14 min 20% B, 18 min 20% B • Detection wavelength: 230 +/- 5 nm • Injected volume: 5 ul
Table 3: the selectivity matrix of the individual methods according to the invention

The nature of data set [2]: Solubility of 10-DAB III in solvents and biphasic solvent systems. From the text:
(§1) As such a degree of solubility may only be achieved in a mixture of MIBK, acetone and water after heating, after cooling and shaking the substance crystalized (Margraff, 1995). The partition coefficient of 10-DAB III is around 6. […] The chromatogram according to Figure 3 presents a product purified in such a solvent system.
(§2) It was also surprising to experience that the biphasic system formed by the mixture of methyl tert-butyl ether (hereinafter: MTBE), acetone and water is also suitable for dissolving 10-DAB III, if their volumetric mixing ratio is approximately 4:4:3, in which the upper phase is a mixture of 40% MTBE, 50% acetone and 10% water, and the lower phase is a mixture of 40% water, 50% acetone and 10% MTBE. 10-DAB III is insoluble separately in MTBE and in water, but it dissolves in both phases of the aforementioned ternary solvent mixture, solubility in the upper phase is 50 mg/ml. […] Such contaminants on the basis of the HPLC method below are the RRT=0.68 and the RRT=0.87 contaminants.

Data set [3] can be described thus: Partition coefficient in biphasic CPC solvent systems.
From the text: as §1, §2
Liquid chromatography or extraction performed with a chlorinated hydrocarbon is usually used for the separation of chlorophyll and related compounds. […] A solvent system that may be used for this may be the dichloromethane, methanol and water mixture at an approximate volumetric ratio of 3:4:3. In this solvent system the partition coefficient of 10-DAB III is 0.95, while that of the aforementioned problematic contaminants is around 0.4-0.5.

For `CC(=O)O[C@@]12CO[C@@H]1C[C@H](O)[C@@]1(CO)C(=O)[C@H](O)C3=C(C)[C@@H](O)C[C@@](O)([C@@H](OC(=O)c4ccccc4)[C@H]21)C3(C)C` [RRT=0.48, 19-OH-10-deacetylbaccatin III], the selectivity entry in data set [1] (CPC solvent mixture DCM/MeOH/water, Table 3) is listed as “+”; in data set [1] (CPC solvent mixture MEK/water, isocratic HPLC method), “great selectivity”; in data set [1] (CPC solvent mixture MEK/water, Table 3), “+++ (high selectivity)”; in data set [1] (CPC solvent mixture MTBE/acetone/water, isocratic HPLC method) it was “great selectivity”; in data set [1] (prior-art system: mixture of methyl isobutyl ketone, acetone and water), “excellent selectivity”.
For orientation: solubility means the dissolved amount per volume that the medium holds. On to `CC(=O)O[C@@]12CO[C@@H]1C[C@H](O)[C@@]1(C)C(=O)[C@H](O)C3=C(C)[C@@H](O)C[C@@](O)([C@@H](OC(=O)c4ccccc4)[C@H]21)C3(C)C` [10-DAB III, 10-deacetylbaccatin III], for which the solubility in data set [2] (organic solvent or mixture, MTBE/acetone/water approximately 4:4:3, upper phase (40% MTBE, 50% acetone, 10% water), read-out: solubility in the upper phase) is 50 mg/mL (≈ 91.8 mM); in data set [2] (separately in MEK or water), “does not dissolve well”; in data set [2] (separately in MTBE and in water), “insoluble”; in data set [2] (upper phase of MEK/water biphasic system, organic solvent or mixture, MEK/water biphasic system, upper phase (MEK saturated with water), read-out: solubility in the upper phase), 80 mg/mL (≈ 147 mM). The partition coefficient entry is on record as “around 6” in data set [3] (MEK/water biphasic system); “around 2” in data set [3] (MTBE/acetone/water approximately 4:4:3); 0.95 in data set [3] (dichloromethane, methanol and water approximately 3:4:3).
